Data: the supplement of paper PMC10307832

Legend:
Assay in all cases: relative viability (nuclei count vs DMSO), 5 days (fraction); higher = more cells survive
A-427 = system: A-427
How it was run: (§1)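 Nuclei were stained with Hoechst during a one-step fixation (final 0.05% Triton X-100, 1% formaldehyde, 1 ug/ml Hoechst) carried out 5 days after dosing, then counted on 4× images. The cells, lung cancer lines in 1536-well plates, had been dosed by pin tool the day after seeding with one drug alone or a fixed anchor-drug dose plus five library-drug doses (not always all listed) in √10 steps. Relative viability is the nuclei count in treated wells divided by that in vehicle wells, and each value is the median of duplicate plates.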

BEN = system: BEN
How it was run: as §1

COR-L23 = system: COR-L23
How it was run: as §1

EKVX = system: EKVX
How it was run: as §1

HARA = system: HARA
How it was run: as §1

LC-2-ad = system: LC-2-ad
How it was run: as §1

LCLC-103H = system: LCLC-103H
How it was run: as §1

LOU-NH91 = system: LOU-NH91
How it was run: as §1

LU99A = system: LU99A
How it was run: as §1

NCI-H1650 = system: NCI-H1650
How it was run: as §1

NCI-H1666 = system: NCI-H1666
How it was run: as §1

NCI-H1793 = system: NCI-H1793
How it was run: as §1

NCI-H1915 = system: NCI-H1915
How it was run: as §1

NCI-H1944 = system: NCI-H1944
How it was run: as §1

NCI-H2087 = system: NCI-H2087
How it was run: as §1

NCI-H2170 = system: NCI-H2170
How it was run: as §1

NCI-H2228 = system: NCI-H2228
How it was run: as §1

NCI-H3122 = system: NCI-H3122
How it was run: as §1

NCI-H322M = system: NCI-H322M
How it was run: as §1

NCI-H520 = system: NCI-H520
How it was run: as §1

NCI-H727 = system: NCI-H727
How it was run: as §1

PC-14 = system: PC-14
How it was run: as §1

PC-3 [JPC-3] = system: PC-3 [JPC-3]
How it was run: as §1

SK-LU-1 = system: SK-LU-1
How it was run: as §1

`Oc1nc(-c2ccc(C(F)(F)F)cc2)nc2c1CSCC2` [XAV939] + Cc1nc(Nc2ncc(C(=O)Nc3c(C)cccc3Cl)s2)cc(N2CCN(CCO)CC2)n1 [Dasatinib] (partner 0.075 µM) was tested, and the relative viability (A-427; first compound 0.08 µM) was 0.838, the relative viability (A-427; first compound 0.253 µM) was 0.677 and the relative viability (A-427; first compound 0.8 µM) was 0.667. For the same compound, the relative viability (A-427; first compound 2.53 µM) was 0.557, the relative viability (BEN; first compound 0.08 µM) was 0.294 and the relative viability (BEN; first compound 0.253 µM) was 0.299. The relative viability (BEN; first compound 0.8 µM) was 0.32, the relative viability (BEN; first compound 2.53 µM) was 0.287 and the relative viability (COR-L23; first compound 0.08 µM) was 0.461. It also gave a relative viability (COR-L23; first compound 0.253 µM) of 0.424, a relative viability (COR-L23; first compound 0.8 µM) of 0.505 and a relative viability (COR-L23; first compound 2.53 µM) of 0.444. For the same compound, the relative viability (EKVX; first compound 0.08 µM) was 0.444, the relative viability (EKVX; first compound 0.8 µM) was 0.486 and the relative viability (EKVX; first compound 2.53 µM) was 0.228. It also gave a relative viability (HARA; first compound 0.08 µM) of 0.229, a relative viability (HARA; first compound 0.253 µM) of 0.201 and a relative viability (HARA; first compound 0.8 µM) of 0.275. For the same compound, the relative viability (HARA; first compound 2.53 µM) was 0.256, the relative viability (LC-2-ad; first compound 0.08 µM) was 0.729 and the relative viability (LC-2-ad; first compound 0.253 µM) was 0.446. It also gave a relative viability (LC-2-ad; first compound 0.8 µM) of 0.553, a relative viability (LC-2-ad; first compound 2.53 µM) of 0.595 and a relative viability (LCLC-103H; first compound 0.08 µM) of 0.633. For the same compound, the relative viability (LCLC-103H; first compound 0.253 µM) was 0.553, the relative viability (LCLC-103H; first compound 0.8 µM) was 0.55 and the relative viability (LCLC-103H; first compound 2.53 µM) was 0.456. For the same compound, the relative viability (LOU-NH91; first compound 0.08 µM) was 0.519, the relative viability (LOU-NH91; first compound 0.253 µM) was 0.5 and the relative viability (LOU-NH91; first compound 0.8 µM) was 0.501. It also gave a relative viability (LOU-NH91; first compound 2.53 µM) of 0.526, a relative viability (LU99A; first compound 0.08 µM) of 0.503 and a relative viability (LU99A; first compound 0.253 µM) of 0.56. For the same compound, the relative viability (LU99A; first compound 0.8 µM) was 0.591, the relative viability (LU99A; first compound 2.53 µM) was 0.457 and the relative viability (NCI-H1650; first compound 0.08 µM) was 0.331. For the same compound, the relative viability (NCI-H1650; first compound 0.253 µM) was 0.323, the relative viability (NCI-H1650; first compound 0.8 µM) was 0.263 and the relative viability (NCI-H1650; first compound 2.53 µM) was 0.288. For the same compound, the relative viability (NCI-H1666; first compound 0.08 µM) was 0.921, the relative viability (NCI-H1666; first compound 0.253 µM) was 0.801 and the relative viability (NCI-H1666; first compound 0.8 µM) was 0.761. The relative viability (NCI-H1666; first compound 2.53 µM) was 0.744, the relative viability (NCI-H1793; first compound 0.08 µM) was 0.379 and the relative viability (NCI-H1793; first compound 0.253 µM) was 0.339. It also gave a relative viability (NCI-H1793; first compound 0.8 µM) of 0.399, a relative viability (NCI-H1793; first compound 2.53 µM) of 0.419 and a relative viability (NCI-H1915; first compound 0.08 µM) of 0.353. It also gave a relative viability (NCI-H1915; first compound 0.253 µM) of 0.214, a relative viability (NCI-H1915; first compound 0.8 µM) of 0.311 and a relative viability (NCI-H1915; first compound 2.53 µM) of 0.298. The relative viability (NCI-H1944; first compound 0.08 µM) was 0.239, the relative viability (NCI-H1944; first compound 0.253 µM) was 0.248 and the relative viability (NCI-H1944; first compound 0.8 µM) was 0.226. It also gave a relative viability (NCI-H1944; first compound 2.53 µM) of 0.218, a relative viability (NCI-H2087; first compound 0.08 µM) of 1.11 and a relative viability (NCI-H2087; first compound 0.253 µM) of 0.623. For the same compound, the relative viability (NCI-H2087; first compound 0.8 µM) was 0.891, the relative viability (NCI-H2087; first compound 2.53 µM) was 0.689 and the relative viability (NCI-H2170; first compound 0.08 µM) was 0.505. It also gave a relative viability (NCI-H2170; first compound 0.253 µM) of 0.496, a relative viability (NCI-H2170; first compound 0.8 µM) of 0.46 and a relative viability (NCI-H2170; first compound 2.53 µM) of 0.394. For the same compound, the relative viability (NCI-H2228; first compound 0.08 µM) was 0.496, the relative viability (NCI-H2228; first compound 0.253 µM) was 0.426 and the relative viability (NCI-H2228; first compound 0.8 µM) was 0.473. The relative viability (NCI-H2228; first compound 2.53 µM) was 0.382, the relative viability (NCI-H3122; first compound 0.08 µM) was 0.877 and the relative viability (NCI-H3122; first compound 0.253 µM) was 0.786. It also gave a relative viability (NCI-H3122; first compound 0.8 µM) of 0.789, a relative viability (NCI-H3122; first compound 2.53 µM) of 0.181 and a relative viability (NCI-H322M; first compound 0.08 µM) of 0.241. The relative viability (NCI-H322M; first compound 0.253 µM) was 0.254, the relative viability (NCI-H322M; first compound 0.8 µM) was 0.227 and the relative viability (NCI-H322M; first compound 2.53 µM) was 0.22. It also gave a relative viability (NCI-H520; first compound 0.08 µM) of 0.179, a relative viability (NCI-H520; first compound 0.253 µM) of 0.17 and a relative viability (NCI-H520; first compound 0.8 µM) of 0.152. For the same compound, the relative viability (NCI-H520; first compound 2.53 µM) was 0.193, the relative viability (NCI-H727; first compound 0.08 µM) was 0.332 and the relative viability (NCI-H727; first compound 0.253 µM) was 0.452. It also gave a relative viability (NCI-H727; first compound 0.8 µM) of 0.442, a relative viability (NCI-H727; first compound 2.53 µM) of 0.405 and a relative viability (PC-14; first compound 0.08 µM) of 0.288. It also gave a relative viability (PC-14; first compound 0.253 µM) of 0.252, a relative viability (PC-14; first compound 0.8 µM) of 0.204 and a relative viability (PC-14; first compound 2.53 µM) of 0.148. The relative viability (PC-3 [JPC-3]; first compound 0.08 µM) was 1.09, the relative viability (PC-3 [JPC-3]; first compound 0.253 µM) was 0.899 and the relative viability (PC-3 [JPC-3]; first compound 0.8 µM) was 0.938. The relative viability (PC-3 [JPC-3]; first compound 2.53 µM) was 1.05, the relative viability (SK-LU-1; first compound 0.08 µM) was 0.166 and the relative viability (SK-LU-1; first compound 0.253 µM) was 0.147. It also gave a relative viability (SK-LU-1; first compound 0.8 µM) of 0.211 and a relative viability (SK-LU-1; first compound 2.53 µM) of 0.188.
